Measured values: ChEMBL document CHEMBL3826915, “Design and comparative anticonvulsant activity assessment of CNS-active alkyl-carbamoyl imidazole derivatives” (Bioorg Med Chem, 2016)
The source made the active and inactive calls. The rule behind the calls is not given here.

Tests used:
[1] = tested on: Mus musculus; assay: Anticonvulsant activity in ip dosed albino CF1 mouse assessed as protection against maximal electroshock-induced seizures; type: functional
[2] = tested on: Rattus norvegicus; assay: Anticonvulsant activity in albino Sprague-Dawley rat assessed as protection against maximal electroshock-induced seizures at 30 mg/kg, po after 1 hr; type: functional, organism-based
[3] = tested on: Rattus norvegicus; assay: Anticonvulsant activity in ip dosed albino Sprague-Dawley rat assessed as protection against maximal electroshock-induced seizures; type: functional
[4] = tested on: Rattus norvegicus; assay: Neurotoxicity in albino Sprague-Dawley rat assessed as behavioral impairment at 30 mg/kg, ip after 1 hr by rotorod test; type: toxicity, organism-based; details: in vivo
[5] = Protective index, ratio of TD50 for neurotoxicity in ip dosed albino Sprague-Dawley rat to ED50 for anticonvulsant activity in ip dosed maximal electroshock-induced seizure albino Sprague-Dawley rat model; type: toxicity, organism-based; details: in vivo, read-out: Ratio TD50/ED50
[6] = Protective index, ratio of TD50 for neurotoxicity in ip dosed albino CF1 mouse to ED50 for anticonvulsant activity in ip dosed 6 Hz current-induced seizure albino CF1 mouse model; details: in vivo
[7] = Protective index, ratio of TD50 for neurotoxicity in ip dosed albino Sprague-Dawley rat to ED50 for anticonvulsant activity in ip dosed subcutaneous metrazol-induced seizure albino Sprague-Dawley rat model; type: toxicity, organism-based; details: in vivo, read-out: Ratio TD50/ED50
[8] = tested on: Mus musculus; assay: Neurotoxicity in albino CF1 mouse assessed as behavioral impairment at 50 mg/kg, ip after 2 hrs by rotorod test; type: toxicity, organism-based; details: in vivo
[9] = tested on: Mus musculus; assay: Anticonvulsant activity in albino CF1 mouse assessed as protection against maximal electroshock-induced seizures at 300 mg/kg, ip after 0.5 hrs; type: functional, organism-based
[10] = tested on: Rattus norvegicus; assay: Neurotoxicity in albino Sprague-Dawley rat assessed as behavioral impairment at 30 mg/kg, po after 1 hr by rotorod test; type: toxicity, organism-based; details: in vivo
[11] = tested on: Mus musculus; assay: Neurotoxicity in albino CF1 mouse assessed as behavioral impairment at 50 mg/kg, ip after 0.25 hrs by rotorod test; type: toxicity, organism-based; details: in vivo
[12] = tested on: Mus musculus; assay: Anticonvulsant activity in ip dosed albino CF1 mouse assessed as protection against subcutaneous metrazol-induced seizures; type: functional
[13] = tested on: Rattus norvegicus; assay: Anticonvulsant activity in albino Sprague-Dawley rat assessed as protection against maximal electroshock-induced seizures at 30 mg/kg, ip after 0.25 hrs; type: functional, organism-based
[14] = tested on: Rattus norvegicus; assay: Neurotoxicity in albino Sprague-Dawley rat assessed as behavioral impairment at 30 mg/kg, po after 0.5 hrs by rotorod test; type: toxicity, organism-based; details: in vivo
[15] = tested on: Mus musculus; assay: Anticonvulsant activity in albino CF1 mouse assessed as protection against 32 mA current-induced seizure at 30 mg/kg, ip after 2 hrs by 6 Hz psychomotor test; type: functional, organism-based
[16] = Neurotoxicity in ip dosed albino Sprague-Dawley rat assessed as motor impairment by rotorod test; type: toxicity, organism-based; details: in vivo
[17] = tested on: Mus musculus; assay: Anticonvulsant activity in ip dosed albino CF1 mouse assessed as protection against 6 Hz current-induced seizure by measuring time to peak effect; type: functional
[18] = tested on: Mus musculus; assay: Neurotoxicity in albino CF1 mouse assessed as behavioral impairment at 300 mg/kg, ip after 0.5 hrs by rotorod test; type: toxicity, organism-based; details: in vivo
[19] = Protective index, ratio of TD50 for neurotoxicity in ip dosed albino CF1 mouse to ED50 for anticonvulsant activity in ip dosed maximal electroshock-induced seizure albino CF1 mouse model; type: toxicity, organism-based; details: in vivo, read-out: Ratio TD50/ED50
[20] = tested on: Rattus norvegicus; assay: Anticonvulsant activity in albino Sprague-Dawley rat assessed as protection against maximal electroshock-induced seizures at 30 mg/kg, ip after 0.5 hrs; type: functional, organism-based
[21] = tested on: Rattus norvegicus; assay: Neurotoxicity in albino Sprague-Dawley rat assessed as behavioral impairment at 30 mg/kg, po after 0.25 hrs by rotorod test; type: toxicity, organism-based; details: in vivo
[22] = tested on: Rattus norvegicus; assay: Neurotoxicity in albino Sprague-Dawley rat assessed as behavioral impairment at 30 mg/kg, ip after 2 hrs by rotorod test; type: toxicity, organism-based; details: in vivo
[23] = tested on: Mus musculus; assay: Anticonvulsant activity in ip dosed albino CF1 mouse assessed as protection against subcutaneous metrazol-induced seizures by measuring time to peak effect; type: functional
[24] = tested on: Rattus norvegicus; assay: Anticonvulsant activity in albino Sprague-Dawley rat assessed as protection against maximal electroshock-induced seizures at 30 mg/kg, po after 2 hrs; type: functional, organism-based
[25] = tested on: Mus musculus; assay: Anticonvulsant activity in albino CF1 mouse assessed as protection against 32 mA current-induced seizure at 300 mg/kg, ip after 0.5 hrs by 6 Hz psychomotor test; type: functional, organism-based
[26] = Protective index, ratio of TD50 for neurotoxicity in ip dosed albino CF1 mouse to ED50 for anticonvulsant activity in ip dosed […] metrazol-induced seizure albino CF1 mouse model; type: toxicity, organism-based; details: in vivo, read-out: Ratio TD50/ED50
[27] = tested on: Rattus norvegicus; assay: Anticonvulsant activity in ip dosed albino Sprague-Dawley rat assessed as protection against subcutaneous metrazol-induced seizures; type: functional
[28] = tested on: Mus musculus; assay: Anticonvulsant activity in albino CF1 mouse assessed as protection against 44 mA current-induced seizure at 50 mg/kg, ip after 0.25 hrs by 6 Hz psychomotor test; type: functional, organism-based
[29] = tested on: Mus musculus; assay: Neurotoxicity in albino CF1 mouse assessed as behavioral impairment at 30 mg/kg, ip after 0.5 hrs by rotorod test; type: toxicity, organism-based; details: in vivo
[30] = tested on: Mus musculus; assay: Anticonvulsant activity in ip dosed albino CF1 mouse assessed as protection against maximal electroshock-induced seizures by measuring time to peak effect; type: functional
[31] = tested on: Mus musculus; assay: Neurotoxicity in albino CF1 mouse assessed as behavioral impairment at 30 mg/kg, ip after 2 hrs by rotorod test; type: toxicity, organism-based; details: in vivo
[32] = tested on: Rattus norvegicus; assay: Neurotoxicity in albino Sprague-Dawley rat assessed as behavioral impairment at 30 mg/kg, ip after 0.25 hrs by rotorod test; type: toxicity, organism-based; details: in vivo
[33] = tested on: Mus musculus; assay: Anticonvulsant activity in albino CF1 mouse assessed as protection against 32 mA current-induced seizure at 100 mg/kg, ip after 2 hrs by 6 Hz psychomotor test; type: functional, organism-based
[34] = tested on: Rattus norvegicus; assay: Anticonvulsant activity in ip dosed albino Sprague-Dawley rat assessed as protection against maximal electroshock-induced seizures by measuring time to peak effect; type: functional
[35] = tested on: Rattus norvegicus; assay: Neurotoxicity in albino Sprague-Dawley rat assessed as behavioral impairment at 30 mg/kg, ip after 0.5 hrs by rotorod test; type: toxicity, organism-based; details: in vivo
[36] = tested on: Mus musculus; assay: Anticonvulsant activity in albino CF1 mouse assessed as protection against 32 mA current-induced seizure at 300 mg/kg, ip after 2 hrs by 6 Hz psychomotor test; type: functional, organism-based
[37] = tested on: Mus musculus; assay: Anticonvulsant activity in albino CF1 mouse assessed as protection against maximal electroshock-induced seizures at 30 mg/kg, ip after 2 hrs; type: functional, organism-based
[38] = tested on: Rattus norvegicus; assay: Anticonvulsant activity in albino Sprague-Dawley rat assessed as protection against maximal electroshock-induced seizures at 30 mg/kg, ip after 2 hrs; type: functional, organism-based
[39] = tested on: Mus musculus; assay: Anticonvulsant activity in ip dosed albino CF1 mouse assessed as protection against 6 Hz current-induced seizures by psychomotor test; type: functional
[40] = tested on: Mus musculus; assay: Anticonvulsant activity in albino CF1 mouse assessed as protection against 32 mA current-induced seizure at 100 mg/kg, ip after 0.5 hrs by 6 Hz psychomotor test; type: functional, organism-based
[41] = tested on: Rattus norvegicus; assay: Anticonvulsant activity in albino Sprague-Dawley rat assessed as protection against maximal electroshock-induced seizures at 30 mg/kg, po after 0.5 hrs; type: functional, organism-based
[42] = Neurotoxicity in ip dosed albino CF1 mouse assessed as motor impairment by rotorod test; type: toxicity, organism-based; details: in vivo
[43] = tested on: Rattus norvegicus; assay: Neurotoxicity in albino Sprague-Dawley rat assessed as behavioral impairment at 30 mg/kg, po after 2 hrs by rotorod test; type: toxicity, organism-based; details: in vivo
[44] = tested on: Rattus norvegicus; assay: Anticonvulsant activity in ip dosed albino Sprague-Dawley rat assessed as protection against subcutaneous metrazol-induced seizures by measuring time to peak effect; type: functional
[45] = tested on: Mus musculus; assay: Neurotoxicity in albino CF1 mouse assessed as behavioral impairment at 300 mg/kg, ip after 2 hrs by rotorod test; type: toxicity, organism-based; details: in vivo
[46] = tested on: Mus musculus; assay: Anticonvulsant activity in albino CF1 mouse assessed as protection against maximal electroshock-induced seizures at 100 mg/kg, ip after 0.5 hrs; type: functional, organism-based
[47] = tested on: Mus musculus; assay: Anticonvulsant activity in albino CF1 mouse assessed as protection against 32 mA current-induced seizure at 30 mg/kg, ip after 0.5 hrs by 6 Hz psychomotor test; type: functional, organism-based
[48] = tested on: Mus musculus; assay: Neurotoxicity in albino CF1 mouse assessed as behavioral impairment at 50 mg/kg, ip after 1 hr by rotorod test; type: toxicity, organism-based; details: in vivo
[49] = tested on: Mus musculus; assay: Anticonvulsant activity in albino CF1 mouse assessed as protection against 44 mA current-induced seizure at 100 mg/kg, ip after 0.25 hrs by 6 Hz psychomotor test; type: functional, organism-based
[50] = tested on: Mus musculus; assay: Neurotoxicity in albino CF1 mouse assessed as behavioral impairment at 100 mg/kg, ip after 0.25 hrs by rotorod test; type: toxicity, organism-based; details: in vivo
[51] = tested on: Mus musculus; assay: Neurotoxicity in albino CF1 mouse assessed as behavioral impairment at 100 mg/kg, ip after 1 hr by rotorod test; type: toxicity, organism-based; details: in vivo
[52] = tested on: Mus musculus; assay: Neurotoxicity in albino CF1 mouse assessed as behavioral impairment at 100 mg/kg, ip after 2 hrs by rotorod test; type: toxicity, organism-based; details: in vivo
[53] = tested on: Mus musculus; assay: Anticonvulsant activity in albino CF1 mouse assessed as protection against maximal electroshock-induced seizures at 30 mg/kg, ip after 0.5 hrs; type: functional, organism-based
[54] = tested on: Rattus norvegicus; assay: Anticonvulsant activity in albino Sprague-Dawley rat assessed as protection against maximal electroshock-induced seizures at 30 mg/kg, ip after 1 hr; type: functional, organism-based
[55] = tested on: Mus musculus; assay: Anticonvulsant activity in albino CF1 mouse assessed as protection against maximal electroshock-induced seizures at 100 mg/kg, ip after 2 hrs; type: functional, organism-based

SMILES: CCCC(CCC)COC(=O)NCCCn1ccnc1
- ED50 [1]: 18 mg/kg
- Activity [2]: inactive
- ED50 [3]: 12 mg/kg
- Activity [4]: Non-toxic
- selectivity ratio [5]: 7.3
- selectivity ratio [6]: 2
- selectivity ratio [7]: 1
- Activity [8]: Non-toxic
- Activity [9]: Active
- Activity [10]: Non-toxic
- Activity [11]: Non-toxic
- ED50 [12]: > 70 mg/kg
- Activity [13]: Active
- Activity [14]: Non-toxic
- Activity [15]: inactive
- TD50 [16]: 87 mg/kg
- Time [17]: 0.5 h
- Activity [18]: Toxic
- selectivity ratio [19]: 3.3
- Activity [20]: Active
- Activity [21]: Non-toxic
- Activity [22]: Non-toxic
- Time [23]: 0.5 h
- Activity [24]: inactive
- Activity [25]: Active
- selectivity ratio [26]: 0.9
- ED50 [27]: > 88 mg/kg
- Activity [28]: inactive
- Activity [29]: Non-toxic
- Time [30]: 0.5 h
- Activity [31]: Non-toxic
- Activity [32]: Non-toxic
- Activity [33]: Active
- Time [34]: 0.25 h
- Activity [35]: Non-toxic
- Activity [36]: Active
- Activity [37]: inactive
- Activity [38]: inactive
- ED50 [39]: 32 mg/kg
- Activity [40]: Active
- Activity [41]: inactive
- TD50 [42]: 65 mg/kg
- Activity [43]: Non-toxic
- Time [44]: 0.25 h
- Activity [45]: Toxic
- Activity [46]: Active
- Activity [47]: inactive
- Activity [48]: Non-toxic

SMILES: CCCC(CC)OC(=O)NCCCn1ccnc1 (stereo not drawn)
- ED50 [1]: 28 mg/kg
- Activity [2]: inactive
- ED50 [3]: 17 mg/kg
- Activity [4]: Non-toxic
- selectivity ratio [5]: 5.4
- selectivity ratio [6]: 0.64
- selectivity ratio [7]: 1
- Activity [49]: Active
- Activity [10]: Non-toxic
- ED50 [12]: > 50 mg/kg
- Activity [13]: Active
- Activity [14]: Non-toxic
- Activity [15]: inactive
- TD50 [16]: 92 mg/kg
- Time [17]: 0.5 h
- Activity [18]: Toxic
- selectivity ratio [19]: 3.1
- Activity [20]: Active
- Activity [21]: Non-toxic
- Activity [50]: Toxic
- Activity [22]: Non-toxic
- Time [23]: 0.5 h
- Activity [24]: inactive
- Activity [25]: Active
- selectivity ratio [26]: 1.7
- ED50 [27]: > 92 mg/kg
- Activity [51]: Non-toxic
- Activity [29]: Non-toxic
- Time [30]: 0.5 h
- Activity [31]: Non-toxic
- Activity [52]: Non-toxic
- Activity [32]: Non-toxic
- Time [34]: 0.25 h
- Activity [35]: Non-toxic
- Activity [53]: Active
- Activity [38]: Active
- ED50 [39]: 135 mg/kg
- Activity [41]: inactive
- TD50 [42]: 86 mg/kg
- Activity [43]: Non-toxic
- Time [44]: 0.25 h
- Activity [54]: Active
- Activity [55]: Active
- Activity [45]: Toxic
- Activity [46]: Active
